We go through 1 molecule from patent US20140135281A1, “METHODS FOR C[…] MITES” (SYNGENTA PARTICIPATIONS AG, priority 2011, published 2014).

Each structure is given as a SMILES string.

In the data set the test system is Varroa destructor. The data set can be described thus: Contact test of Varroa mite adults on Potter-tower-treated Petri dishes, mortality. The data set is classed as in vivo. The conditions noted are these: concentration of formulation (WP75) 67 microgramme; in 2 days; adult mites, 4 dishes of 5, spray deposit contact. An excerpt:
Varroa mites came from bee colonies provided by a beekeeper. The mite population is kept in a dedicated apiary. For screening needs adults are collected on the same day as the beginning of experiment, either in beehive cells containing brood of worker bees or drones, or directly on bees emerging during collection.
Bee nymphs needed to feed adults of Varroa mites during experiments are choosen within the frames from which Varroa is also collected. They are collected at the stage of nymph with white or pink coloured eyes according methology described by Rembold et Kremer (Characterization of postembryonic developmental stages of the female castes of the honey bee, Apis mellifera L.. Apidologie 11: 29-38).
3 cm diameter Petri dishes were used as confinement material of Varroa mites during experiments. Covers with wire mesh were put on the top of each Petri dish in order to avoid the mites to run away but also to keep favorable humidity for the bee nymph.
Applications were done with a Potter tower (described in “An improved apparatus for applying direct sprays and surface films with data on the electrostatic charge on atomize spray fluids.” Annal of Applied Biology, 39 : 1-28.). The active substance was apllied to achieve uniform distribution on the Petri dish (1.5 mg±0.2 mg/cm^2). A check with distilled water was also tested. […]

As for `Nc1nc(N)nc(NC2CC2)n1` [cyromazine], the “% mortality of Varroa” value was 80% in 2 days.
